Reference: ChEMBL document CHEMBL1201862, “PubChem BioAssay data set” (2004)
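Interpolation was linear, between the two tested concentrations surrounding the appropriate level; five concentrations were tested over 48 hours in 96-well plates. GI50 marks 50% less growth.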 The source made the active and inactive calls. Rule as the data show it: active = GI50 up to about 1.1 µM and inactive = higher.

Tests used:
Experiment in all cases: growth of human tumour cells (NCI), 48 h
786-0 = system: 786-0
A498 = system: A498
A549 = system: A549
ACHN = system: ACHN
BT-549 = system: BT-549
CAKI-1 = system: CAKI-1
CCRF-CEM = system: CCRF-CEM
COLO 205 = system: COLO 205
DU-145 = system: DU-145
EKVX = system: EKVX
HCC 2998 = system: HCC 2998
HCT-116 = system: HCT-116
HCT-15 = system: HCT-15
HL-60 = system: HL-60
HOP-62 = system: HOP-62
HOP-92 = system: HOP-92
HT-29 = system: HT-29
IGROV-1 = system: IGROV-1
K562 = system: K562
KM12 = system: KM12
M14 = system: M14
MCF7 = system: MCF7
MDA-MB-231 = system: MDA-MB-231
MDA-MB-435 = system: MDA-MB-435
MDA-N = system: MDA-N
MOLT-4 = system: MOLT-4
Malme-3M = system: Malme-3M
NCI-H226 = system: NCI-H226
NCI-H23 = system: NCI-H23
NCI-H460 = system: NCI-H460
NCI-H522 = system: NCI-H522
NCI/ADR-RES = system: NCI/ADR-RES
OVCAR-3 = system: OVCAR-3
OVCAR-4 = system: OVCAR-4
OVCAR-5 = system: OVCAR-5
OVCAR-8 = system: OVCAR-8
PC-3 = system: PC-3
RPMI-8226 = system: RPMI-8226
RXF 393 = system: RXF 393
SF-268 = system: SF-268
SF-295 = system: SF-295
SF-539 = system: SF-539
SK-MEL-28 = system: SK-MEL-28
SK-MEL-2 = system: SK-MEL-2
SK-OV-3 = system: SK-OV-3
SN12C = system: SN12C
SNB-19 = system: SNB-19
SNB-75 = system: SNB-75
SR = system: SR
SW-620 = system: SW-620
T47D = system: T47D
U-251 = system: U-251
UACC-257 = system: UACC-257
UACC-62 = system: UACC-62
UO-31 = system: UO-31
LOX IMVI = system: LOX IMVI
SK-MEL-5 = system: SK-MEL-5
TK-10 = system: TK-10
Hs-578T = system: Hs-578T

Measured: GI50

CCCCc1ccc(N2C(=O)c3cccnc3S2(=O)=O)cc1
inactive: 786-0 > 100 µM | A498 > 100 µM | A549 > 100 µM | ACHN > 100 µM | BT-549 > 100 µM | CAKI-1 > 100 µM | CCRF-CEM > 100 µM | COLO 205 > 100 µM | DU-145 > 100 µM | EKVX > 100 µM | HCC 2998 > 100 µM | HCT-116 > 100 µM | HL-60 > 100 µM | HOP-62 > 100 µM | HOP-92 > 100 µM | HT-29 > 100 µM | IGROV-1 > 100 µM | K562 > 100 µM | KM12 > 100 µM | M14 > 100 µM | MCF7 > 100 µM | MDA-MB-231 > 100 µM | MDA-MB-435 > 100 µM | MDA-N > 100 µM | MOLT-4 > 100 µM | Malme-3M > 100 µM | NCI-H226 > 100 µM | NCI-H23 > 100 µM | NCI-H460 > 100 µM | NCI-H522 > 100 µM | NCI/ADR-RES > 100 µM | OVCAR-3 > 100 µM | OVCAR-4 > 100 µM | OVCAR-5 > 100 µM | OVCAR-8 > 100 µM | PC-3 > 100 µM | RPMI-8226 > 100 µM | RXF 393 > 100 µM | SF-268 > 100 µM | SF-295 > 100 µM | SF-539 > 100 µM | SK-MEL-28 > 100 µM | SK-MEL-2 > 100 µM | SK-OV-3 > 100 µM | SN12C > 100 µM | SNB-19 > 100 µM | SNB-75 > 100 µM | SR > 100 µM | SW-620 > 100 µM | T47D > 100 µM | U-251 > 100 µM | UACC-257 > 100 µM | UACC-62 > 100 µM | UO-31 > 100 µM
> 100 µM: HCT-15

CN1C(=O)[C@@]2(C=CC3(CC2)OCCO3)c2ccccc21
inactive: 786-0 > 50 µM | A498 > 50 µM | A549 > 50 µM | ACHN 49.5 µM | BT-549 > 50 µM | CAKI-1 > 50 µM | CCRF-CEM > 50 µM | COLO 205 > 50 µM | DU-145 > 50 µM | EKVX 49.2 µM | HCC 2998 > 50 µM | HCT-116 > 50 µM | HL-60 35.7 µM | HOP-62 > 32.1 µM | HOP-92 > 50 µM | HT-29 > 50 µM | K562 > 50 µM | KM12 > 37.5 µM | LOX IMVI > 50 µM | M14 > 50 µM | MCF7 48.5 µM | MDA-MB-231 > 50 µM | MDA-MB-435 > 45 µM | MDA-N > 50 µM | MOLT-4 > 46.3 µM | NCI-H226 > 50 µM | NCI-H23 21.8 µM | NCI-H460 > 50 µM | NCI-H522 8.53 µM | NCI/ADR-RES > 50 µM | OVCAR-3 > 50 µM | OVCAR-4 > 50 µM | OVCAR-5 > 50 µM | OVCAR-8 > 50 µM | PC-3 > 45.4 µM | RPMI-8226 > 50 µM | RXF 393 > 50 µM | SF-268 10.3 µM | SF-295 > 50 µM | SK-MEL-28 > 50 µM | SK-MEL-2 > 50 µM | SK-MEL-5 > 50 µM | SK-OV-3 > 50 µM | SN12C > 50 µM | SNB-19 > 50 µM | SNB-75 > 25.9 µM | SR > 50 µM | SW-620 > 50 µM | T47D 35 µM | TK-10 > 50 µM | U-251 > 50 µM | UACC-257 > 50 µM | UACC-62 > 50 µM | UO-31 > 50 µM
active: IGROV-1 0.48 µM
> 48.2 µM: HCT-15

CCOC(=O)/C(C(=O)c1ccc([N+](=O)[O-])cc1)=C(\NS(=O)(=O)c1cc(C)c(Cl)cc1[S-])[n+]1ccc(N(C)C)cc1
34 µM: HCT-15
inactive: 786-0 30.3 µM | A498 21.4 µM | A549 38.8 µM | ACHN 30.1 µM | BT-549 35.5 µM | CAKI-1 35.1 µM | CCRF-CEM 31.4 µM | COLO 205 29.9 µM | DU-145 31 µM | HCT-116 19.2 µM | HL-60 30.1 µM | HOP-62 29.4 µM | HOP-92 3.27 µM | HT-29 24 µM | IGROV-1 45.3 µM | K562 32.1 µM | KM12 27.4 µM | M14 31.1 µM | MCF7 40.3 µM | MDA-MB-231 47.9 µM | MDA-MB-435 32.8 µM | MDA-N 35.5 µM | MOLT-4 32.2 µM | Malme-3M 14.4 µM | NCI-H226 51.8 µM | NCI-H460 34.9 µM | NCI-H522 12.4 µM | NCI/ADR-RES 43.1 µM | OVCAR-3 32.3 µM | OVCAR-4 32.9 µM | OVCAR-5 28.8 µM | OVCAR-8 38.9 µM | PC-3 16.7 µM | RPMI-8226 28.1 µM | RXF 393 64.1 µM | SF-268 37.1 µM | SF-295 16.7 µM | SF-539 21.5 µM | SK-MEL-28 28.3 µM | SK-MEL-2 3.83 µM | SK-MEL-5 42.8 µM | SK-OV-3 25.8 µM | SN12C 61.7 µM | SR 31.6 µM | T47D 50.8 µM | TK-10 18.7 µM | U-251 41.6 µM | UACC-257 6.47 µM | UACC-62 49.3 µM | UO-31 35.3 µM

Cc1ccc([N+](=O)[O-])cc1NC(=O)C(=O)C1CCC2=C(Sc3ccccc3N2)C1=O (stereo not given)
inactive: 786-0 > 100 µM | A549 > 100 µM | ACHN > 100 µM | BT-549 > 100 µM | CAKI-1 52 µM | CCRF-CEM 63.4 µM | COLO 205 > 100 µM | DU-145 > 100 µM | EKVX > 100 µM | HCC 2998 > 100 µM | HCT-116 68.2 µM | HL-60 > 100 µM | HOP-62 > 100 µM | HOP-92 > 100 µM | HT-29 > 100 µM | Hs-578T > 100 µM | IGROV-1 > 100 µM | KM12 > 100 µM | LOX IMVI > 100 µM | M14 > 100 µM | MCF7 > 100 µM | MDA-MB-231 > 100 µM | MDA-MB-435 > 100 µM | MDA-N > 100 µM | MOLT-4 43.7 µM | NCI-H226 58.7 µM | NCI-H23 > 100 µM | NCI-H460 > 100 µM | NCI-H522 > 100 µM | NCI/ADR-RES > 100 µM | OVCAR-3 23 µM | OVCAR-4 > 100 µM | OVCAR-5 > 100 µM | OVCAR-8 66.8 µM | PC-3 53 µM | RXF 393 > 100 µM | SF-268 > 100 µM | SF-295 > 100 µM | SF-539 37.5 µM | SK-MEL-28 > 100 µM | SK-MEL-2 > 100 µM | SK-MEL-5 > 100 µM | SK-OV-3 > 100 µM | SN12C > 100 µM | SNB-19 > 100 µM | SNB-75 > 100 µM | SW-620 > 100 µM | TK-10 > 100 µM | U-251 > 100 µM | UACC-257 > 100 µM | UACC-62 > 100 µM | UO-31 60 µM
> 100 µM: HCT-15
